Earlier results in US20140106406A1, “GENE CLUSTER FOR THE PRODUCTION OF GOUGEROTIN, GOUGEROTIN ANALOGUES, AND PRECURSORS THEREOF” (Bayer Cropscience LP, priority 2012, published 2014).

Key:
powdery mildew = settings: against powdery mildew
[1] = tested on: parasites on animals, such as pin worm
[2] = tested on: gram-positive, gram-negative bacteria and tubercule bacillus

| SMILES | antifungal activity (powdery mildew) | parasiticidal action [1] | antibacterial activity [2] |
| --- | --- | --- | --- |
| NC(N)=NCC(O)CC(O)(C(=O)O)[C@H]1O[C@@H](n2cc(CO)c(N)nc2=O)C=C[C@@H]1NC(=O)[C@@H](N)CO (stereo partly drawn) [antibiotic B-98891] | antifungal activity | – | – |
| CNCC(=O)NC(CO)C(=O)NC1C(C(N)=O)OC(n2ccc(N)nc2=O)C(O)C1O (stereo not drawn) [gougerotin] | – | parasiticidal action | weak antibacterial activity |
